This note sets out measurements from BindingDB's records for doi:10.1016/s0960-894x(01)00477-2 (Section De Chimie De L'Universit&#163, 2001).

As usually defined, the Ki is a measure of affinity in units of concentration, obtained from inhibition or displacement. Low readings indicate higher affinity, high ones lower affinity. Usually IC50 stands for the midpoint of a concentration-inhibition curve. High values mean lower potency, low ones higher potency.

Assay [1] in a line: Inhibitory activity towards Alpha-mannosidase from Jack bean.
A short description of assay [2]: Inhibitory activity towards Alpha-mannosidase from Almond.
Experiment in assay [3]: as above
The source holds these as a separate data set.

Assay [4] in a line: Inhibitory activity towards Alpha-mannosidase from Jack bean. The source holds these as a separate data set.
Assay [5] can be described thus: Inhibitory activity towards Beta-Glucosidase from Almond.
Experiment in assay [6]: as above
The source holds these as a separate data set.

The nature of assay [7]: Inhibitory activity towards Alpha-mannosidase from jack bean.
Assay [8] is described as follows: Inhibitory activity towards Beta-Glucosidase from Almond. This is another data set of the same source.
The nature of assay [9]: Inhibitory activity towards Alpha-mannosidase from Almond. The source holds these as a separate data set.
Assay [10] can be described thus: Inhibitory activity towards Beta-Glucosidase from Almond. This is another data set of the same source.

On to `OC1CNC(CNCc2cccs2)C1O` (stereo not drawn) [2-{[(Thiophen-2-ylmethyl)-amino]-methyl}-pyrrolidine-3,4-diol], for which the inhibition constant Ki came to 26 µM in [1] and 98 µM in assay [2]. Moreover, the IC50 in [3] came out at 350 µM.

`C[C@@H](NCC1NCC(O)C1O)c1ccccc1` (stereo partly drawn) [2-[((R)-1-Phenyl-ethylamino)-methyl]-pyrrolidine-3,4-diol] had an IC50 in assay [4] of 440 µM. This compound also had an inhibition constant Ki in [1] of 170 µM.

In assay [5], `CC(=O)N(Cc1ccccc1)CC1NCC(O)C1O` (stereo not drawn) [N-Benzyl-N-(3,4-dihydroxy-pyrrolidin-2-ylmethyl)-acetamide] gave an IC50 of 430 µM. In addition, in assay [6], the Ki was 220 µM.

Consider `CC(NCC1NCC(O)C1O)C(O)(c1ccccc1)c1ccccc1` (stereo not drawn) [2-[(2-Hydroxy-1-methyl-2,2-diphenyl-ethylamino)-methyl]-pyrrolidine-3,4-diol], for which the IC50 in [5] stood at 550 µM; in assay [7], 440 µM. In addition, the Ki in assay [1] amounted to 170 µM.

Regarding `OCC(O)[C@H]1NC[C@H](O)[C@@H]1O` (stereo partly drawn), the results for the half-inhibitory concentration (IC50) in [7] and in assay [8] were 800 µM and 120 µM, respectively. Besides, the inhibitory constant (Ki) in assay [6] is 53 µM.

Take `OC1CNC(CNC2CCCC2)C1O` (stereo not drawn) [2-Cyclopentylaminomethyl-pyrrolidine-3,4-diol]: the figures for the IC50 in assay [5] and in assay [7] were 500 µM and 560 µM, respectively.

`OC1CNC(CNCc2ccccc2)C1O` (stereo not drawn) [2-(Benzylamino-methyl)-pyrrolidine-3,4-diol] returned an IC50 in assay [5] of 370 µM.

Regarding `OC1CNC(CNCn2ccnc2)C1O` (stereo not drawn) [2-{[(Imidazol-1-ylmethyl)-amino]-methyl}-pyrrolidine-3,4-diol], the concentration for half-maximal inhibition (IC50) in assay [5] was 420 µM; in assay [9] it was 570 µM; in assay [4] it was 700 µM.

In the case of `OC(O)CC1NCC(O)C1O` (stereo not drawn) [2-(2,2-Dihydroxy-ethyl)-pyrrolidine-3,4-diol], the 50% inhibitory concentration (IC50) in assay [4] is 180 µM. The compound further showed a Ki in assay [1] of 80 µM.

`OC1CNC(CNCc2ccco2)C1O` (stereo not drawn) [2-{[(Furan-2-ylmethyl)-amino]-methyl}-pyrrolidine-3,4-diol]: the half-maximal inhibitory concentration (IC50) in [5] amounted to 140 µM. In assay [10], this compound displayed a Ki of 12 µM.

As for `OC1CNC(CNCC2CCN(Cc3ccccc3)CC2)C1O` (stereo not drawn) [2-{[(1-Benzyl-piperidin-4-ylmethyl)-amino]-methyl}-pyrrolidine-3,4-diol], the figures for the IC50 in assay [5] and in assay [4] were 430 µM and 700 µM, respectively.

Turning to `NCC1NCC(O)C1O` (stereo not drawn) [2-Aminomethyl-pyrrolidine-3,4-diol], the IC50 was determined as 1000 µM in assay [9] and 170 µM in assay [4]. In assay [1], affinity was put at a Ki of 53 µM.
